The test system of one data set is Canidae. The following applies: chronic; duration: 1 years; oral; Dog Other; no effects.
The subject of another data set is Folsomia candida. The following applies: chronic/long-term.
In the next data set the test system is Oncorhynchus mykiss. The following applies: acute; duration: 96 hours; mortality.
A further data set concerns Tagia sp. To be noted: acute; duration: 14 days; mortality.
In another data set the test system is Bibionidae. The following applies: chronic/long-term; duration: 28 days.
For another data set, the system named is Pimephales promelas. The following applies: chronic/long-term; duration: 33 days; growth.
Another data set deals with Oryctolagus sp. The following applies: reproduction developmental; no effects.
For a further data set, the system named is Rattus norvegicus. To be noted: for NOAEL: no effects.
Another data set relates to Daphnia magna. The following applies: chronic/long-term; duration: 21 days; reproduction.
In a further data set the test system is Mus musculus. To be noted: no effects.
In a further data set the test system is Apis mellifera. The following applies: acute, mortality.
The mark [1] stands for this setting: subchronic, duration: 90 days, oral.

Results on 1 molecule are retold here after EPA's ToxValDB 9.5 (doi:10.2903/j.efsa.2012.2921).

The structures appear in SMILES notation. Several values for one entry are separate records, joined by “and”; a condition that tells them apart may be missing. Equal entries are not always repeated. Where only a bound is given, the exact number is not on record here.

A word on the NOAEL: it is the highest dose or exposure tested at which no adverse effect was seen. As for `CCCCCCCCc1c(CC)nc2ncnn2c1N` [Ametoctradin], the NOAEL with Canidae was 848 mg/kg-day; with Oryctolagus sp., 1000 mg/kg-day; in the data set on Rattus norvegicus (chronic, duration: 2 years), 871 mg/kg-day; in the data set with Rattus norvegicus (reproduction developmental) it was ≥ 939 mg/kg-day and 1000 mg/kg-day; in the data set with Rattus norvegicus (setting [1]) it was 1080 mg/kg-day; in the data set on Mus musculus (chronic, duration: 18 months), 1100 mg/kg-day. In the data set with Mus musculus (setting [1]), the no-observed-adverse-effect level (NOAEL) came to 1120 mg/kg-day. In addition, the NOEC was at least 268 mg/kg in the data set with Folsomia candida; 222 mg/kg in the data set with Bibionidae; 0.048 mg/L in the data set on Pimephales promelas; at least 188 mg/kg-day in the data set with Anas platyrhynchos (reproductive); 0.044 mg/L in the data set on Daphnia magna; at least 115 mg/kg-day with Colinus virginianus (reproduction developmental). Further, the LC50 with Oncorhynchus mykiss is above 0.0646 µg/mL; with Tagia sp., above 1000 mg/kg; in the data set on Anas platyrhynchos (short-term, oral, feed, mortality) it was above 1550 mg/kg-day; with Colinus virginianus (acute, oral, diet, mortality) it was above 758 mg/kg-day. Further, the LD50 in the data set on Anas platyrhynchos (acute, oral, unspecified, mortality) is above 2000 mg/kg-day; in the data set with Rattus norvegicus (acute, oral, mortality) it was above 2000 mg/kg-day; in the data set on Colinus virginianus (acute, oral, mortality), above 2000 mg/kg-day; in the data set on Apis mellifera (dermal), above 100 µg/piece; in the data set on Apis mellifera (oral, unspecified) it was above 112 µg/piece.
